Source: paper PMC12587545, “Noncytotoxic polymyxin derivatives enhance antibiotic action against multidrug-resistant Gram-negative bacteria” (Antimicrobial Agents and Chemotherapy, 2025)
Read-outs that look alike come from different tables or passages of the source. Positions of bridges follow the written chain, without caps; N, C: chain ends. Non-standard residues stand in square brackets, D forms with d. Residues, ends and D or L forms follow the SMILES beside them. *: point of attachment. Agp = N=C(N)NC[C@H](N)C(=O)O; Octanoyl = CCCCCCCC(=O)*; Dab = NCC[C@H](N)C(=O)O; Dap = NC[C@H](N)C(=O)O

Experiments:
[1] = system: RPTEC/TERT1; assay type: cell-based, human; settings: 48 h
Experimental: (§1) Kidney cell lines, HK-2 (CRL-2190) and RPTEC/TERT1 (CRL-4031), and neural cell lines, U-87 MG (HTB-14) and SK-N-SH (HTB-11), were obtained from American Type Culture Collection (ATCC). HK-2 cells were cultured in T75 flasks with keratinocyte serum-free medium supplemented with bovine pituitary extract, human epidermal growth factor, and 2.5% FBS. RPTEC/TERT1 cells were cultured in T75 flasks with Dulbecco’s modified Eagle’s medium:F12 supplemented with the ATCC (United States) human telomerase reverse transcriptase immortalized RPTEC growth kit, G418 (0.1 mg/mL final concentration), and 2% FBS. Both U-87 MG and SK-N-SH cells were cultured in minimal essential media supplemented with 10% FBS. The cells were incubated in a humidified atmosphere at 5% CO2 and at 37°C.
(§2) The cytotoxicity of the compounds toward the mammalian cell lines was assessed using the cell viability assay protocols as previously described ([29]). Designated wells in 96-well plates were seeded with HK-2 (5,000 cells), RPTEC/TERT1 (8,000 cells), U-87 MG (7,000 cells), or SK-N-SH (8,000 cells) in 50 µL. Blank wells received an identical volume of only media. After incubating the cells for 24 h, all wells were treated with varying concentrations of the compound and incubated for 48 h. Subsequently, PrestoBlue reagent (Invitrogen, United States) was added to the wells to a final concentration of 10% (vol/vol), and the plate was incubated for an additional 1 h. Fluorescence was measured with a SpectraMax M2 plate reader (Molecular Devices, United States), at excitation and emission wavelengths of 560 and 590 nm, respectively. Values from the blank wells were subtracted from the corresponding wells containing cells. The cell viability relative to the controls with vehicle was calculated and presented as mean ± standard deviation of at least two experiments with five replicates each. CC50 values were obtained using GraphPad Prism (version 10.4.1) by non-linear regression (four-parameter logistic fit).

[2] = system: HK-2; assay type: cell-based, human
Experimental: as §1, §2

[3] = system: E. coli
Experimental: (§3) The bacterial isolates were acquired from ATCC or the Canadian Ward Surveillance (CANWARD) study ([56]). CANWARD isolates were collected from infected patients admitted to participating medical centers across Canada.
(§4) The antibiotic or compound was serially diluted 2-fold in CAMHB on a 96-well plate and was incubated with equal volumes of bacterial inoculum overnight at 37°C. Wells containing only media were used as negative controls, and wells containing only bacteria were used as positive controls. Antibacterial activity was measured by the MIC, or the lowest concentration of agent required to inhibit visible bacterial growth.

[4] = system: P. aeruginosa
Experimental: as §3
as §4, with “growth. Turbidity was confirmed with a Molecular Devices (United States) EMax Plus microplate reader at a wavelength of 590 nm.” for “growth.”

[5] = system: A. baumannii; assay type: cell-based, Acinetobacter baumannii
Experimental: Gram-negative and Gram-positive bacterial isolates were grown in lysogeny broth (LB) and brain heart infusion, respectively, overnight in a shaking incubator at 250 rpm and at 37°C.
The antibacterial activity of the antibiotics and compounds was assessed using the broth microdilution assay in accordance with Clinical Laboratory Standards Institute (CLSI) guidelines ([36]), and by following a previously described protocol ([27][–][29], [54], [55]). Bacterial culture grown overnight was diluted in saline to 0.5 McFarland turbidity and was further diluted 1:50 in CAMHB to attain a final concentration of 5 × 10^5 colony-forming units (cfu)/mL for inoculation. The antibiotic or compound was serially diluted 2-fold in CAMHB on a 96-well plate and was incubated with equal volumes of bacterial inoculum overnight at 37°C. Wells containing only media were used as negative controls, and wells containing only bacteria were used as positive controls. Antibacterial activity was measured by the MIC, or the lowest concentration of agent required to inhibit visible bacterial growth. Turbidity was confirmed with a Molecular Devices (United States) EMax Plus microplate reader at a wavelength of 590 nm.

[6] = system: P. aeruginosa; experiment: Checkerboard assay (antibiotic potentiation); assay type: cell-based, Pseudomonas aeruginosa; settings: P. aeruginosa PAO1; compound alone
Experimental: The interaction between the compounds and the antibiotics was evaluated using the fractional inhibitory concentration (FIC) index. FIC indices of ≤0.5 is synergistic, 0.5 < × ≤ 4 is additive, whereas >4 is antagonistic ([34]).
Synergy was measured by the FIC index, which is the summation of the individual FICs of the antibiotic and the compound. The FIC is calculated by dividing the MIC of one agent in the presence of another by the MIC of the agent alone. […] The FBS studies were conducted by following a previously published protocol ([29], [50]). The FBS was inactivated by heating at 56°C for 30 min with constant swirling.

[7] = system: A. baumannii; experiment: Checkerboard assay (antibiotic potentiation); assay type: cell-based, Acinetobacter baumannii; settings: A. baumannii ATCC 17978; compound alone
Experimental: The interaction between the compounds and the antibiotics was evaluated using the fractional inhibitory concentration (FIC) index. FIC indices of ≤0.5 is synergistic, 0.5 < × ≤ 4 is additive, whereas >4 is antagonistic ([34]). […] .
as §3
The antibiotic and compounds were serially diluted 2-fold in CAMHB along the x- and y-axis, respectively, on a 96-well plate that was subsequently incubated with equal volumes of bacterial inoculum overnight at 37°C. Wells containing only media were used as negative controls, and wells containing only bacteria were used as positive controls. Synergy was measured by the FIC index, which is the summation of the individual FICs of the antibiotic and the compound. The FIC is calculated by dividing the MIC of one agent in the presence of another by the MIC of the agent alone. Turbidity was confirmed with a Molecular Devices (United States) EMax Plus microplate reader at a wavelength of 590 nm. The FBS studies were conducted by following a previously published protocol ([29], [50]). The FBS was inactivated by heating at 56°C for 30 min with constant swirling.

Structure (SMILES) | CC50 in RPTEC/TERT1 [1] | CC50 in HK-2 [2] | CC50 in HK-2 ([2]; 48 h) | MIC [3] | MIC [4] | MIC [5] | MICcompound [6] | MICcompound [7]
CCCCCCCC(=O)N[C@@H](CCN)C(=O)N[C@H](C(=O)N[C@@H](CC(=O)O)C(=O)N[C@H]1CCNC(=O)[C@H]([C@@H](C)O)NC(=O)[C@H](CCN)NC(=O)[C@H](CCN)NC(=O)[C@H](CC(C)C)NC(=O)[C@@H](Cc2ccccc2)NC(=O)[C@H](CCN)NC1=O)[C@@H](C)O [Compound 4] (Octanoyl-[Dab]TD[Dab][Dab][dF]L[Dab][Dab]T; lactam 4-C) | 238.8 µM | 236.1 µM | 236.8 µM |  |  |  |  | 
CCCCCCCC(=O)N[C@@H](CN)C(=O)N[C@H](C(=O)N[C@@H](CC(=O)O)C(=O)N[C@H]1CCNC(=O)[C@H]([C@@H](C)O)NC(=O)[C@H](CN)NC(=O)[C@H](CN)NC(=O)[C@H](CC(C)C)NC(=O)[C@@H](Cc2ccccc2)NC(=O)[C@H](CN)NC1=O)[C@@H](C)O [Compound 3] (Octanoyl-[Dap]TD[Dab][Dap][dF]L[Dap][Dap]T; lactam 4-C) | 627.2 µM |  | 215.5 µM | >128 µg/mL | >128 µg/mL | >128 µg/mL | >128 µg/mL | >128 µg/mL
CCCCCCCC(=O)N[C@@H](CCN)C(=O)N[C@H](C(=O)N[C@@H](CCN)C(=O)N[C@H]1CCNC(=O)[C@H]([C@@H](C)O)NC(=O)[C@H](CCN)NC(=O)[C@H](CCN)NC(=O)[C@H]([C@@H](C)O)NC(=O)[C@@H]([C@H](C)O)NC(=O)[C@H](CCN)NC1=O)[C@@H](C)O [Compound F230] (Octanoyl-[Dab]T[Dab][Dab][Dab][dT]T[Dab][Dab]T; lactam 4-C) | 471.4 µM |  | 263.1 µM |  |  |  |  | 
CCCCCCCC(=O)N[C@@H](CNC(=N)N)C(=O)N[C@H](C(=O)N[C@@H](CNC(=N)N)C(=O)N[C@H]1CCNC(=O)[C@H]([C@@H](C)O)NC(=O)[C@H](CNC(=N)N)NC(=O)[C@H](CNC(=N)N)NC(=O)[C@H](CC(C)C)NC(=O)[C@@H](Cc2ccccc2)NC(=O)[C@H](CNC(=N)N)NC1=O)[C@@H](C)O [Compound 2] (Octanoyl-[Agp]T[Agp][Dab][Agp][dF]L[Agp][Agp]T; lactam 4-C) | 28 µM |  | 26.9 µM |  |  |  |  | 
